Data reported in patent US20260042801A1, “COMPOSITIONS AND METHODS FOR DYE-BOUND CYCLIZED PEPTIDES FOR MEDICAL USE” (The Texas A&M University System, priority 2022, published 2026).

Tested on: severe T8 contusion/compression SCI
Experiment: Preclinical SCI model: locomotor test (BMS) and survival
Assay type: in vivo, mouse
Details: IP daily 5 and 25 mg/kg/day
Procedure: FIG. 8: Timeline of the preclinical in vivo animal study conducted as evidence of claims. Mice underwent baseline cognitive testing and blood collection immediately before SCI. Mice sustained an SCI at 8 weeks of age. SCI model: thoracic-8 contusion (50 kdyne impact) and compression ([…]), a severe contusion/compression model that accurately represents injuries seen in the clinic. 5c(i) (5 or 25 mg/kg/day) or Vehicle were administered IP daily starting 4 hours post injury to reflect the delay found in the clinic. Locomotor behavioral testing (BMS and Rotarod) were conducted weekly for 7 weeks. 7 weeks after injury, the mice underwent cognitive behavioral testing (NOR and Y-maze) and blood collection once again. Mice were euthanized 7 weeks after sustaining an SCI and underwent perfusion and tissue preparations for further analysis.
9A) BMS Score and 9B) BMS Sub Score were recorded and graphed in relation to time after injury. 9C) Percent of mice surviving at 49 days post injury. […] N=6-8. Graphs show mean and SEM. […] Student's T-test.
Open Field Basso Mouse Scale (BMS): Mice were placed in an open field for 5 minutes to allow mice to freely roam to visually evaluate (by 2 individuals) the following parameters: ankle movements, stepping pattern, coordination, paw placement, trunk instability, and tail position. The mice were scored according to the BMS scoring system^59 with a minimum score of 0 (no movement) to a maximum score of 9 (normal locomotion) followed by the BMS Sub score (assessing stepping patterns, tail movement, trunk posture, paw position, and coordination)^12,60. Rotarod: Mice were placed on a rod rotating at increasing speeds from 5 to 45 rotations per minute (rpm) in a 3-minute interval with constant acceleration to assess strength, endurance, and motor coordination^12,60. Mice were first acclimated to the rotarod with 5 habituation sessions the week before injury. Baseline testing was conducted 1 day before injury. […]

C-DIRG-C BODIPY® (fluorescent dye) [5c(i)]
mice surviving at 49 days post injury: improves survival
BMS Sub score (7 weeks): significantly improved
BMS score (7 weeks): significantly improved
